Laboratory results taken from patent publication US8969570B2, “Beta-lactamase inhibitors” (priority 2012, dated 2015).
Structures can show the parent of a compound that is named as a salt.

What was measured:
Type in all cases: cell-based
Conditions in all cases: β-lactam (CXA-101/Ceftolozane or ceftazidime) fixed at 4 μg/mL; compared with Avibactam (comparator compound CCC)
[1] = test system: bacterial strains that express SHV-12 β-lactamase (isogenic E. coli strain); assay: Synergy MIC (sMIC) assay, SHV-12 strain
Source text: (§1) A set of β-lactamase expressing isogenic E. coli strains was constructed by cloning a β-lactamase gene into a customized derivative of pBR322 (GenBank Accession Number J01749) and transforming the engineered plasmids into E. coli. The NdeI restriction site within the plasmid backbone of pBR322 was removed to generate pBR322 ΔNdeI. The pBR322 ΔNdeI vector itself, minus the blaTEM-1 gene, was amplified using two primers: (1) pBR-Pbla 5′-[…]-3, SEQ ID 1, a primer with an engineered NdeI restriction site at the 3′ end of the blaTEM-1 promoter and (2) pBR-vec-1 5′-[…]-3′, SEQ ID 2, a primer with an engineered BamHI restriction site at the 3′ end of the blaTEM-1 open reading frame. The chloramphenicol resistance gene, cat, was generated by PCR amplification from pKD3 (GenBank Accession Number AY048742) using primers with an engineered NdeI restriction site at the 5′ end (Pbla-cat 5′-[…]-3′, SEQ ID 3) and an engineered BamHI restriction site at the 3′ end (Vec-1-cat 5′-[…]-3′, SEQ ID 4) of the resistance gene. The two PCR products, pBR322 ΔNdeI and cat were ligated together generating pBR-CBST (pBR322 ΔNdeI ΔTEM-1::cat Seq. ID 5) which retains both the pBR322 tetracycline resistance cassette, tetA, and the plasmid origin of replication but the blaTEM-1 gene was replaced by the cat gene.
(§2) Using this engineering strategy a number of plasmids producing β-lactamase genes from different classes (see below) were generated using synthetic genes with an engineered NdeI restriction site at the 5′ end and BamHI restriction site at the 3′ end of each gene (GenScript). Both the synthetic β-lactamase genes and cat gene were ligated into the NdeI/BamHI sites of the pBR322 ΔNdeI PCR product and transformed into electrocompetent E. coli ElectroMax DH10B (Invitrogen/Life Technologies). E. coli DH10B harboring the recombinant plasmids were selected on LB agar (supplemented with 25 μg/mL tetracycline) and single isolated colonies were then inoculated into 5 mL LB media (supplemented with 25 μg/mL tetracycline), and incubated at 37° C. with aeration (250 rpm) for 18 hrs. The cultures were frozen back at −80° C. in 20% glycerol. The DNA sequence of the cloned β-lactamase genes was confirmed. The β-lactamase gene expression in the recombinant E. coli strains was driven by the blaTEM-1 promoter in the pBR-CBST plasmid and was characterized by MIC profiling of the E. coli recombinant strains against comparator β-lactam/BLI combinations in broth microdilution assay.
(§3) The synergy MIC (sMIC) assay determines the concentration of the BLI required to potentiate the activity of a fixed concentration of a β-lactam antibiotic against β-lactamase producing bacterial strains. The experimental protocol was performed according to Clinical and Laboratory Standards Institute (CLSI) guidelines with modifications as described below (CLSI guidelines can be derived from the CLSI document M07-A9 published in January 2012: “Methods for Dilution Antimicrobial Susceptibility Tests for Bacteria That Grow Aerobically; Approved Standard-Ninth Edition”). The assay is set-up by serially diluting the BLI across 11 of the 12 wells in each row of a 96-well broth microdilution assay plate, adding the β-lactam at a fixed concentration to all wells in the assay plate, inoculating the assay plate with bacterial strains, and determining the lowest concentration of BLI required to inhibit overnight bacterial growth.
(§4) To prepare for MIC testing, frozen glycerol stocks of laboratory engineered, isogenic E. coli strains, which contain cloned β-lactamase expressing plasmids were used to streak for isolated colonies on rich, selective LB agar supplemented with 25 μg/mL tetracycline to maintain the plasmid. All strains were incubated at 37° C. for 18-24 hrs.
(§5) On the day of testing, primary cultures were started by scraping off 5-10 colonies from the tetracycline supplemented LB plates containing engineered strains. […]

[2] = test system: bacterial strains that express KPC β-lactamase (isogenic E. coli strain KPC-2); assay: Synergy MIC (sMIC) assay, KPC strain
Source text: as §1, §2, §3, §4, §5

[3] = test system: bacterial strains that express OXA-15 β-lactamase (isogenic E. coli strain); assay: Synergy MIC (sMIC) assay, OXA-15 strain
Source text: as §1, §2, §3, §4, §5

[4] = test system: bacterial strains that express P99 β-lactamase (isogenic E. coli strain P99 AmpC); assay: Synergy MIC (sMIC) assay, P99 AmpC strain
Source text: as §1, §2, §3, §4, §5

[5] = test system: bacterial strains that express CTX-M-15 β-lactamase (isogenic E. coli strain); assay: Synergy MIC (sMIC) assay, CTX-M-15 strain
Source text: as §1, with “cat gene. […]” for “cat gene.”

Row | SMILES | activity against bacterial strains that express SHV-12 β-lactamase relative to Avibactam (sMIC) [1] | activity against bacterial strains that express KPC β-lactamase relative to Avibactam (sMIC) [2] | activity against bacterial strains that express OXA-15 β-lactamase relative to Avibactam (sMIC) [3] | activity against bacterial strains that express P99 β-lactamase relative to Avibactam (sMIC) [4] | activity against bacterial strains that express CTX-M-15 β-lactamase relative to Avibactam (sMIC) [5]
1 | NC(=O)c1noc([C@@H]2CC[C@@H]3CN2C(=O)N3OS(=O)(=O)O)n1 [Compound 401, (2S,5R)-2-(3-carbamoyl-1,2,4-oxadiazol-5-yl)-7-oxo-1,6-diazabicyclo[3.2.1]octan-6-yl hydrogen sulfate] | as active as Avibactam | as active or more active than Avibactam |  |  | 
2 | N#Cc1cc([C@@H]2CC[C@@H]3CN2C(=O)N3OS(=O)(=O)O)no1 [Compound 102, (2S,5R)-2-(5-cyanoisoxazol-3-yl)-7-oxo-1,6-diazabicyclo[3.2.1]octan-6-yl hydrogen sulfate] |  | as active or more active than Avibactam |  |  | 
3 | CCc1nnc([C@@H]2CC[C@@H]3CN2C(=O)N3OS(=O)(=O)O)o1 [Compound 201, (2S,5R)-2-(5-ethyl-1,3,4-oxadiazol-2-yl)-7-oxo-1,6-diazabicyclo[3.2.1]octan-6-yl hydrogen sulfate] |  | as active or more active than Avibactam | more active than Avibactam |  | 
4 | CN1CCC(c2nnc([C@@H]3CC[C@@H]4CN3C(=O)N4OS(=O)(=O)O)o2)CC1 [Compound 204, (2S,5R)-2-(5-(1-methylpiperidin-4-yl)-1,3,4-oxadiazol-2-yl)-7-oxo-1,6-diazabicyclo[3.2.1]octan-6-yl hydrogen sulfate] |  | as active or more active than Avibactam | more active than Avibactam | as active as Avibactam | 
5 | CNc1nnc([C@@H]2CC[C@@H]3CN2C(=O)N3OS(=O)(=O)O)o1 [Compound 203, (2S,5R)-2-(5-(methylamino)-1,3,4-oxadiazol-2-yl)-7-oxo-1,6-diazabicyclo[3.2.1]octan-6-yl hydrogen sulfate] |  | as active or more active than Avibactam |  |  | 
6 | Cc1nnc([C@@H]2CC[C@@H]3CN2C(=O)N3OS(=O)(=O)O)o1 [Compound 200, (2S,5R)-2-(5-methyl-1,3,4-oxadiazol-2-yl)-7-oxo-1,6-diazabicyclo[3.2.1]octan-6-yl hydrogen sulfate] | as active as Avibactam | as active or more active than Avibactam | more active than Avibactam |  | 
7 | NCc1nnc([C@@H]2CC[C@@H]3CN2C(=O)N3OS(=O)(=O)O)s1 [Compound 301, (2S,5R)-2-(5-(aminomethyl)-1,3,4-thiadiazol-2-yl)-7-oxo-1,6-diazabicyclo[3.2.1]octan-6-yl hydrogen sulfate] | as active as Avibactam | as active or more active than Avibactam | more active than Avibactam | as active as Avibactam | 
8 | NC(=O)c1cc([C@@H]2CC[C@@H]3CN2C(=O)N3OS(=O)(=O)O)no1 [Compound 103, (2S,5R)-2-(5-carbamoylisoxazol-3-yl)-7-oxo-1,6-diazabicyclo[3.2.1]octan-6-yl hydrogen sulfate] | as active as Avibactam | as active or more active than Avibactam |  |  | 
9 | O=C1N2C[C@@H](CC[C@H]2c2ncns2)N1OS(=O)(=O)O [Compound 500, (2S,5R)-7-oxo-2-(1,2,4-thiadiazol-5-yl)-1,6-diazabicyclo[3.2.1]octan-6-yl hydrogen sulfate] |  |  |  | as active as Avibactam | 
10 | O=C1N2C[C@@H](CC[C@H]2c2ccon2)N1OS(=O)(=O)O [Compound 101, (2S,5R)-2-(isoxazol-3-yl)-7-oxo-1,6-diazabicyclo[3.2.1]octan-6-yl hydrogen sulfate] |  | as active or more active than Avibactam |  | as active as Avibactam | as active as Avibactam
11 | O=C1N2C[C@@H](CC[C@H]2c2nncs2)N1OS(=O)(=O)O [Compound 300, (2S,5R)-7-oxo-2-(1,3,4-thiadiazol-2-yl)-1,6-diazabicyclo[3.2.1]octan-6-yl hydrogen sulfate] | as active as Avibactam | as active or more active than Avibactam | more active than Avibactam | as active as Avibactam | as active as Avibactam
12 | O=C1N2C[C@@H](CC[C@H]2c2nnc(N3CCNCC3)s2)N1OS(=O)(=O)O [Compound 302, (2S,5R)-7-oxo-2-(5-(piperazin-1-yl)-1,3,4-thiadiazol-2-yl)-1,6-diazabicyclo[3.2.1]octan-6-yl hydrogen sulfate] | as active as Avibactam | as active or more active than Avibactam | more active than Avibactam |  | 
13 | O=C1N2C[C@@H](CC[C@H]2c2nnc(C3CNCCO3)o2)N1OS(=O)(=O)O (stereo partly drawn) [Compound 206, (2S,5R)-2-(5-(morpholin-2-yl)-1,3,4-oxadiazol-2-yl)-7-oxo-1,6-diazabicyclo[3.2.1]octan-6-yl hydrogen sulfate] |  | as active or more active than Avibactam | more active than Avibactam | as active as Avibactam | 
14 | CN1CCN(c2nnc([C@@H]3CC[C@@H]4CN3C(=O)N4OS(=O)(=O)O)o2)CC1 [Compound 205, (2S,5R)-2-(5-(4-methylpiperazin-1-yl)-1,3,4-oxadiazol-2-yl)-7-oxo-1,6-diazabicyclo[3.2.1]octan-6-yl hydrogen sulfate] |  | as active or more active than Avibactam | more active than Avibactam |  | 
15 | CCOC(=O)c1noc([C@@H]2CC[C@@H]3CN2C(=O)N3OS(=O)(=O)O)n1 [Compound 402, ethyl 5-((2S,5R)-7-oxo-6-(sulfooxy)-1,6-diazabicyclo[3.2.1]octan-2-yl)-1,2,4-oxadiazole-3-carboxylate] | as active as Avibactam |  |  |  | 
